Laboratory results as given in article PMC6194020, “Cryo-EM structures of human STEAP4 reveal mechanism of iron(III) reduction” (Nature Communications, 2018).
Numbering of substitutions follows the chain as printed. In names and notes the source's numbering stands. Each block holds one molecule with its values, some of them ahead of it.

What was measured:
[1] = molecular target: T1, GFP-tagged full-length STEAP4 (Homo sapiens, UniProt Q687X5); assay: ferrozine ferric-reductase assay, FAD varied; assay type: biochemical; settings: 200 µM Fe3+-NTA, 75 µM NADPH, 37 °C, SEC buffer pH 5.5, digitonin
T1 construct: full-length, C-terminal GFP-Strep3 tag kept; detergent-purified (digitonin), trimer
T1 sequence (Q687X5 1-459): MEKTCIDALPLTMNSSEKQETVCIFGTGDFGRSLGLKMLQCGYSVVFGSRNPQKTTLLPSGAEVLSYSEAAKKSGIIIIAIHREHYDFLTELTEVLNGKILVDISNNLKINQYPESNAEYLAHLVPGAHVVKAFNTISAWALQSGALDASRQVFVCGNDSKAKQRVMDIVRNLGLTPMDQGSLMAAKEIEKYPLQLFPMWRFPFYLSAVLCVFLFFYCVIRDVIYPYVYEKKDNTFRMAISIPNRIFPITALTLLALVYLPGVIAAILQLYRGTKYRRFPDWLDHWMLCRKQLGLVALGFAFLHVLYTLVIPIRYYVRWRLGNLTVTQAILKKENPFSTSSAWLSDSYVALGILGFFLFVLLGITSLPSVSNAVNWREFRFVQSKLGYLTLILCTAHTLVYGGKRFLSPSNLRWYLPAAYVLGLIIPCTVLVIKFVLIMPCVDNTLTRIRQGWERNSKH

[2] = molecular target: T2, STEAP4EM (Homo sapiens, UniProt Q687X5); assay: ferrozine ferric-reductase assay, FAD varied, binding curve fit; assay type: biochemical; settings: 200 µM Fe3+-NTA, 75 µM NADPH, 37 °C, SEC buffer pH 5.5, digitonin; Kd from activity curve; also seen in cryo-EM structures
T2 construct: gene STEAP4; residues K18-Q456 (deltaN17 deltaC3), C-terminal GFP-Strep3 tag removed by TEV; codon-optimised, HEK293 GNTI- cells; digitonin-solubilised homotrimer; cytosolic oxidoreductase domain plus transmembrane domain
T2 sequence (Q687X5 18-456): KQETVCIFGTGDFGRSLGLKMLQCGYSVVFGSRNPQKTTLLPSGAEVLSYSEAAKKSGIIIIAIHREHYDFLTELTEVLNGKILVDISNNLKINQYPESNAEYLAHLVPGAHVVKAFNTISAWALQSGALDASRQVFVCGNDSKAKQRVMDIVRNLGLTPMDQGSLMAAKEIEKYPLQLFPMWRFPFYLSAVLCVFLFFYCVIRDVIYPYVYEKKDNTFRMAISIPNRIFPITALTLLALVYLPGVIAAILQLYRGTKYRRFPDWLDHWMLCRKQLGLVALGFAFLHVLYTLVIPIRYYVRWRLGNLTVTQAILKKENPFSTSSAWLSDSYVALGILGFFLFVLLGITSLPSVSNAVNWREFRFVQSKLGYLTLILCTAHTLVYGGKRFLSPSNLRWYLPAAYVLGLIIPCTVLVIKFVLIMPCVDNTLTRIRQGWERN

[3] = molecular target: T2, STEAP4EM; assay: ferric-reductase assay with FMN instead of FAD; assay type: biochemical; settings: FMN in place of FAD; construct (STEAP4EM or full length) not stated in main text
[4] = molecular target: T3, GFP-tagged full-length STEAP4 (Homo sapiens, UniProt Q687X5, S138Q); assay: ferrozine ferric-reductase assay, NADPH varied; assay type: biochemical; settings: 200 µM Fe3+-NTA, 10 µM FAD, 37 °C, SEC buffer pH 5.5, digitonin
T3 construct: full-length, C-terminal GFP-Strep3 tag kept; detergent-purified (digitonin), trimer
T3 sequence (Q687X5 1-459 S138Q): T1 sequence (Q687X5 1-459) with S138Q

[5] = molecular target: T1, GFP-tagged full-length STEAP4; assay: ferrozine ferric-reductase assay, NADPH varied; assay type: biochemical; settings: 200 µM Fe3+-NTA, 10 µM FAD, 37 °C, SEC buffer pH 5.5, digitonin
[6] = molecular target: STEAP4EM (human STEAP4 residues K18-Q456, ΔN17ΔC3), non-TEV cleaved, with C-terminal GFP-Strep3 tag (human); assay: SEC-MALS; non-TEV cleaved STEAP4EM on Superdex200 10/300 increase in 20 mM Tris pH 8.0, 150 mM NaCl, 0.08% digitonin, 0.75 ml/min; protein conjugate analysis to separate protein and micelle
[7] = substrate: NC(=O)C1=CN([C@@H]2O[C@H](COP(=O)(O)OP(=O)(O)OC[C@H]3O[C@@H](n4cnc5c(N)ncnc54)[C@H](OP(=O)(O)O)[C@@H]3O)[C@@H](O)[C@H]2O)C=CC1; assay: ferrozine ferric-reductase assay, NADPH varied; assay type: biochemical, Homo sapiens; settings: 200 µM Fe3+-NTA, 10 µM FAD, 37 °C, SEC buffer pH 5.5, digitonin, also seen in cryo-EM structure
[8] = molecular target: the molecule itself; assay: not stated; purified S138Q mutant; data in Supplementary Fig. 13

Kd [2]: 1200 nM
Molecule: Cc1cc2nc3c(=O)[nH]c(=O)nc-3n(C[C@H](O)[C@H](O)[C@H](O)COP(=O)(O)OP(=O)(O)OC[C@H]3O[C@@H](n4cnc5c(N)ncnc54)[C@H](O)[C@@H]3O)c2cc1C [FAD]
ferrozine ferric-reductase assay, FAD varied [1]: full-length STEAP4 wildtype (WT) and S138Q mutant with varying FAD concentrations

Molecule: Cc1cc2nc3c(=O)[nH]c(=O)nc-3n(C[C@H](O)[C@H](O)[C@H](O)COP(=O)(O)O)c2cc1C [FMN]
ferric-reductase assay with FMN instead of FAD [3]: FMN may act as a cofactor in STEAP4-catalyzed iron reduction

Molecule: NC(=O)C1=CN([C@@H]2O[C@H](COP(=O)(O)OP(=O)(O)OC[C@H]3O[C@@H](n4cnc5c(N)ncnc54)[C@H](OP(=O)(O)O)[C@@H]3O)[C@@H](O)[C@H]2O)C=CC1 [NADPH]
ferrozine ferric-reductase assay, NADPH varied [4]: displayed strongly impaired ferric-reductase activity
ferrozine ferric-reductase assay, NADPH varied [5]: full-length STEAP4 WT and S138Q mutant with varying NADPH concentrations

stoichiometry N [6]: 3
Molecule: STEAP4EM (human STEAP4 residues K18-Q456, ΔN17ΔC3), non-TEV cleaved, with C-terminal GFP-Strep3 tag (enzyme)

B1: STEAP4EM (Homo sapiens) (protein)
chain: T2 sequence (Q687X5 18-456)
notes: residues K18-Q456 (deltaN17 deltaC3), C-terminal GFP-Strep3 tag removed by TEV; codon-optimised, HEK293 GNTI- cells; digitonin-solubilised homotrimer; cytosolic oxidoreductase domain plus transmembrane domain
Km [7]: 4.2 µM

B2: full-length human STEAP4 S138Q mutant (enzyme, UniProt Q687X5 1-459, looked up)
chain: T1 sequence (Q687X5 1-459) with S138Q
notes: six-transmembrane epithelial antigen of the prostate 4 (STEAP4), human, full length, with S138Q; source: detergent-purified
stoichiometry N [8]: 3
